From patent US11498885B2, “Use of pyrazole propargyl ethers as nitrification inhibitors” (BASF SE, priority 2018, dated 2022)

How the values were obtained:
[1] = volatility of prior-art nitrification inhibitor; format: physicochemical; conditions: stated as disadvantageous for long-term applications
[2] = test system: nitrification; assay: inhibition of nitrification in soil incubation test; format: cell-based, soil microbial biomass; conditions: 100 g soil, 10 mg ammoniumsulfate-N, 20° C., 14 days, best obtained NI value
Experimental: The compounds of the invention have been tested as follows in terms of the inhibition of nitrification: 100 g soil is filled into 500 ml plastic bottles (e.g. soil sampled from the field) and is moistened to 50% water holding capacity. The soil is incubated at 20° C. for two weeks to activate the microbial biomass. 1 ml test solution, containing the compound in the appropriate concentration (usually 0.3 or 1% of nitrogen N), or DMSO and 10 mg nitrogen in the form of ammoniumsulfate-N is added to the soil and everything mixed well. Bottles are capped but loosely to allow air exchange. The bottles are then incubated at 20° C. for 0 and 14 days. For analysis, 300 ml of a 1% K2SO4-solution is added to the bottle containing the soil and shaken for 2 hours in a horizontal shaker at 150 rpm. Then the whole solution is filtered through a filter (Macherey-Nagel Filter MN 807¼). Ammonium and nitrate content is then analyzed in the filtrate in an autoanalyzer at 550 nm (Merck, AA11). The inhibition (NI @ a specified concentration) is calculated as follows: [formula]

For `CCOc1cc(C)[nH]n1` [3-ethoxy-5-methylpyrazole], the volatility [1] was “high volatility”.

With `C#CCOc1ccn[nH]1` [Compound 1] the “NI* @ 0.3%” value ([2]; compound at 0.3% of nitrogen N) was 60.6 and the “NI* @ 1%” value ([2]; compound at 1% of nitrogen N) was 74.7.
